Laboratory results as given in the NIST ThermoML archive (doi:10.1016/j.tca.2006.01.013).

Assay: xn = mol fraction of the nth substance listed
Details: 101 kPa, Liquid, Vibrating tube method

NCCN [ethane-1,2-diamine] + O
mass density [kg/m3]
Details | 303.15 K | 308.15 K | 313.15 K | 318.15 K
x2 = 0.0401 | – | 887.06 | 882.34 | 877.6
x2 = 0.0797 | – | 891.14 | 886.43 | 881.71
x2 = 0.1199 | – | 895.6 | 890.91 | 886.2
x2 = 0.1598 | – | 900.38 | 895.71 | 891.01
x2 = 0.2003 | – | 905.43 | 900.77 | 896.09
x2 = 0.25 | – | 911.71 | 907.07 | 902.4
x2 = 0.2999 | – | 918.47 | 913.84 | 909.18
x2 = 0.3497 | – | 925.84 | 921.21 | 916.56
x2 = 0.3998 | – | 933.48 | 928.86 | 924.21
x2 = 0.4504 | – | 941.48 | 936.86 | 932.22
x2 = 0.5001 | 954.3 | 949.72 | 945.1 | 940.46
x2 = 0.5499 | 962.83 | 958.26 | 953.66 | 949.04
x2 = 0.5998 | 971.09 | 966.55 | 961.99 | 957.4
x2 = 0.6499 | 978.72 | 974.26 | 969.77 | 965.25
x2 = 0.7004 | 985.34 | 981.04 | 976.7 | 972.33
x2 = 0.7499 | 989.81 | 985.76 | 981.67 | 977.53
x2 = 0.8 | 991.83 | 988.16 | 984.43 | 980.63
x2 = 0.84 | 991.96 | 988.67 | 985.31 | 981.87
x2 = 0.88 | 991.27 | 988.42 | 985.47 | 982.43
x2 = 0.9193 | 990.71 | 988.32 | 985.81 | 983.17
x2 = 0.9599 | 991.65 | 989.7 | 987.59 | 985.32
